Consider 8 compounds from patent publication US7358064B2, “Kits for measuring cellular transmembrane potential changes” (Molecular Devices Corporation, priority 2001, dated 2008).

pEC50: −log10 of the molar value.

One data set deals with P2X2 cells. As to the kind of experiment: FLIPR membrane potential assay, fluorescence response of dyes in P2X2 cells. It counts as cell-based. The settings on record: for Fluorescence enhancement by 10 μM ATP stimulation (in folds) / Response speed: P2X2 cells, FLIPR; for Response speed: ATP stimulation; for Response to membrane potential change (speed, in words): compared with other DiBAC/DiSBAC dyes; for Signal strength: compared with other members of the DiBAC and DiSBAC family, FLIPR and other fluorescence devices. The source says: This specific example illustrates how to use DiSBA1(3) in P2X2 cells in combination with the FLIPR™ fluorescent imaging plate reader sold by Molecular Devices Corp. of Sunnyvale, Calif. P2X2 cells are 1321 N1 astrocytoma cells transfected to overexpress the purinergic P2X2 ligand-gated ion channel. P2X2 belongs to a class of purinergic ion channels that pass calcium and sodium in response to purine, including adenosine 5′-triphosphate (ATP). P2X2 cells are propagated and maintained in DME (high glucose), 10% FCS, 1× Pen/Strep and 2 mM L-glutamine. Doubling time is approximately 36 hours. P2X2 cells should be split at a 1 to 2 ratio upon confluence. The cells should be carried for no more than 20 passages. When approaching this limit, a new frozen vial of cells should be resurrected. Following is a typical kit procedure: • 1. Plate 40,000 P2X2 cells in 100 μL per well for 96 well plates or 10,000 P2X2 cells in 25 μL per well for 384 well plates for overnight.
2. Prepare 1× Loading Buffer. • 2.1 To prepare the 1× Assay Buffer, pipette 10 mL of 10× Reagent Buffer (1× Hanks' Balance Saline Solution+20 mM HPEPES, pH 7.40) and dilute in 90 mL of distilled water. Adjust pH to 7.4 using 1.0 N NaOH and/or 1.0 N HCl. • 2.2 To prepare 10 mM stock solution of DiSBAC1(3), dissolve 3.8 mg DiSBAC1(3) in 1 mL DMSO • 2.3 To prepare 10% pluronic acid, dissolve 400 mg pluronic acid in 4 mL water. Heat to 37° C. to complete dissolution. • 2.4 To prepare 1× Loading Buffer, add 30 μL of stock DiSBAC1(3), 8 μL 10% pluronic acid, and 20.0 mg DB71 in the 1× FLIPR assay buffer. • 3. Load Cells with 1× Loading Buffer • 4. Remove cell plates from the incubator • 5. Add 100 μL of 1× Loading Buffer per well of 96-well plates or 25 μL per well of 384-well plates. • 6. Incubate plates at 37° C. for 30 minutes. • 7. Run the FLIPR Membrane Potential Assay • 7.1 Make 5× compound plate prior to running the FLIPR assay. Dissolve 27.5 mg of ATP (Sigma Cat# A3377) in 1 mL of sterile water to make a 50 mM stock solution. […] Choose p2x2.fcf for experimental setup in the FLIPR software. Set up the appropriate experiment parameters. • 7.3 After incubation, transfer the plates directly to FLIPR and begin the Membrane Potential Assay. • 8. Run FLIPR and perform data analysis.
DiSBAC1(3), DiSBAC2(3), DiSBAC3(3), DiSBAC4(3), DiBAC1(3) and DiBAC4(3) are dissolved in DMSO (1 mM). The stock solutions are respectively used to assay membrane potential changes in the P2X2 cells in combination with FLIPR™ as described in Example 2.

Data set [1] in a line: Octanol/water partition of DiBAC and DiSBAC dyes, read by absorption spectra. In kind it is physicochemical. The settings on record: for Absorbance in Octanol / Absorbance in Water: 3 mM DMSO stock partitioned in 1:1 octanol/water; for Absorbance in Octanol: octanol layer; for Absorbance in Water: water layer; for Absorbance in Water/Absorbance in Octanol: 1:1 octanol/water partition; for Relative Values: water/octanol ratio relative to DiBAC1(3) (DiBAC dyes) or DiSBAC1(3) (DiSBAC dyes). On the procedure:
(§1) DiSBAC1(3), DiSBAC2(3), DiSBAC3(3), DiSBAC4(3), DiBAC1(3) and DiBAC4(3) are dissolved in DMSO (3 mM). The DMSO stock solutions are respectively partitioned in 1:1 octanol/water mixture. The concentrations of the oxonol dyes in octanol and water layers are determined by absorption spectra.

The next data set relates to PC12. As to the kind of experiment: DiSBAC1(3) as fluorescent indicator of transmembrane potential depolarization of PC12 cells. It counts as cell-based, rat. The settings on record: 75 mM potassium gluconate, 2.5 μM dye, 200 μM Direct Blue 71.
Data set [2] addresses T1, purinergic P2X2 ligand-gated ion channel (Homo sapiens, UniProt Q9UBL9).
T1 construct: expressed in transfected cells; host or cells: 1321N1 astrocytoma cells
T1 sequence (Q9UBL9 1-471): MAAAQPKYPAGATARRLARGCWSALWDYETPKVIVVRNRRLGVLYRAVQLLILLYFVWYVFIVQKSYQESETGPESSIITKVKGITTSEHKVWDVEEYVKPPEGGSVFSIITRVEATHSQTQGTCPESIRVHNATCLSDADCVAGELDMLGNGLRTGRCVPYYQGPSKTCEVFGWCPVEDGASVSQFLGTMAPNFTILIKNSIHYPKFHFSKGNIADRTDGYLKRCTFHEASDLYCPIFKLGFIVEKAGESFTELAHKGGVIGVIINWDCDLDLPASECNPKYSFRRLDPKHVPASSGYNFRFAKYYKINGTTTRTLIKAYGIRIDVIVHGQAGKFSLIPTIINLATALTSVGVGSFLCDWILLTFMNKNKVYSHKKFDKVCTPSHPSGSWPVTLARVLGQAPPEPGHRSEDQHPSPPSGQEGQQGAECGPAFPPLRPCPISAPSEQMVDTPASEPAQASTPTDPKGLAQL
As to the kind of experiment: ATP dose response in FLIPR membrane potential assay with DiSBAC1(3). In kind it is cell-based. The settings on record: ATP dose response in P2X2 cells loaded with DiSBAC1(3); worded as 'should be approximately'.

The format of data set [3] is physicochemical. The following applies: compared with the other oxonol dyes. On the procedure:
as §1

The subject of data set [4] is voltage-gated sodium channels. It counts as cell-based, rat.

Turning to `CCN1C(=O)C(=CC=Cc2c(O)n(CC)c(=S)n(CC)c2=O)C(=O)N(CC)C1=S` [DiSBAC2(3)], in the data set on P2X2 cells, the “Fluorescence enhancement by 10 μM ATP stimulation (in folds)” value (shortened to “Fluorescence enhancement … (in folds)”) stood at 38.6 folds and the Response speed result is recorded as “moderate”. Further, in data set [1], the “Absorbance in Octanol” value was 2.187, the “Absorbance in Water” value stood at 0.01143, the “Absorbance in Water/Absorbance in Octanol” value was 0.0052 and the “Relative Values” is recorded as 0.078.
As to `CN1C(=O)C(=CC=Cc2c(O)n(C)c(=S)n(C)c2=O)C(=O)N(C)C1=S` [DiSBAC1(3), Bis-(1,3-dimethylthiobarbituric acid)trimethine oxonol], in the data set on PC12, the “Fluorescence change on cell depolarization” value was “increased DiSBAC1(3) fluorescence”. Also, in the data set with P2X2 cells, the “Fluorescence enhancement … (in folds)” value was 108.5 folds; the Response speed result was “fast”; the “Response to membrane potential change (speed, in words)” value (“Response to membrane potential change” for short) is “faster response”; the Signal strength result is recorded as “stronger signal”. Also, the “Sensitivity to membrane potential change” value in the data set with P2X2 cells (compared with the rest of the DiSBACs) is listed as “much more sensitive”. Moreover, in data set [1], the “Absorbance in Octanol” value came to 0.9126, the “Absorbance in Water” value is 0.06147, the “Absorbance in Water/Absorbance in Octanol” value was 0.0674 and the “Relative Values” is 1. For the same compound, the Hydrophilicity entry in data set [1] (compared with the other oxonol dyes) is recorded as “much more hydrophilic”.
Usually pEC50 stands for −log10 of the EC50, conventionally taken in molar units. Higher therefore signals a small EC50. `Nc1ncnc2c1ncn2[C@@H]1O[C@H](COP(=O)(O)OP(=O)(O)OP(=O)(O)O)[C@@H](O)[C@H]1O` [ATP, adenosine 5′-triphosphate]: the pEC50 in data set [2] is 7.00 to 8.00.
With `CCCN1C(=O)C(=CC=Cc2c(O)n(CCC)c(=S)n(CCC)c2=O)C(=O)N(CCC)C1=S` [DiSBAC3(3)], in the data set with P2X2 cells, the “Fluorescence enhancement … (in folds)” value was found to be 14.5 folds and the Response speed result was “slow”. In data set [1], the “Absorbance in Octanol” value is listed as 4.331, the “Absorbance in Water” value is reported as 0.002256, the “Absorbance in Water/Absorbance in Octanol” value came to 0.0005 and the “Relative Values” is listed as 0.0077.
As for `CN1C(=O)C(=CC=Cc2c(O)n(C)c(=O)n(C)c2=O)C(=O)N(C)C1=O` [DiBAC1(3)], the Water solubility entry in data set [3] is “greater water solubility”. In the data set on P2X2 cells, the “Fluorescence enhancement … (in folds)” value is listed as 3.7 folds; the Response speed result is “fast”; the “Response to membrane potential change” value is recorded as “much faster response”; the Signal strength entry was “stronger signal”. The “Response to membrane potential change” value in the data set on P2X2 cells (listed as DiBAC1 (3)) is reported as “faster response”. Further, in data set [1], the “Absorbance in Octanol” value turned out to be 0.3104, the “Absorbance in Water” value was 1.297, the “Absorbance in Water/Absorbance in Octanol” value was determined as 4.179 and the “Relative Values” is on record as 1.
With `CCCCN1C(=O)C(=CC=Cc2c(O)n(CCCC)c(=O)n(CCCC)c2=O)C(=O)N(CCCC)C1=O` [DiBAC4(3)], in the data set with P2X2 cells, the “Fluorescence enhancement … (in folds)” value was 3.3 folds and the Response speed result was “slow”. Moreover, in data set [1], the “Absorbance in Octanol” value came to 2.854, the “Absorbance in Water” value amounted to 0.002501, the “Absorbance in Water/Absorbance in Octanol” value was 0.00088 and the “Relative Values” is listed as 0.00021.
Take `NC1=N[C@H](O)[C@H]2[C@H]3O[C@]4(O)O[C@@H]([C@@H](O)[C@@]2(N1)[C@@H]4O)[C@]3(O)CO` [TTX, tetrodotoxin]: in data set [4], the “Change in membrane potential (fluorescence increase) upon potassium addition” value was “smaller increase in fluorescence”.
`CCCCN1C(=O)C(=CC=Cc2c(O)n(CCCC)c(=S)n(CCCC)c2=O)C(=O)N(CCCC)C1=S` [DiSBAC4(3)]: in the data set on P2X2 cells, the “Fluorescence enhancement … (in folds)” value stood at 2.3 folds and the Response speed entry is reported as “slow”. For the same compound, in data set [1], the “Absorbance in Octanol” value is 3.226, the “Absorbance in Water” value is reported as 0.003318, the “Absorbance in Water/Absorbance in Octanol” value is <0.0010 and the “Relative Values” is <0.0077.
